According to PubChem BioAssay AID1996:
≈ marks a conversion by molar mass, not a printed value.

Details: buffer; pH 7.4; 200.0 µM

First: CCc1cccc(NC(=O)CC2Oc3ccccc3NC2=O)c1 (stereo not given)
Second: O=C(O)CCN1C(=O)c2ccc(NC(=O)CCc3ccccc3)cc2C1=O
The solubility kinetic of the first is lower: 0.0024 mg/mL (≈ 7.73 µM) for the first, over 0.055 mg/mL for the second.

Compared with Br.Fc1ccc(-c2csc(NC3=NCCC3)n2)cc1, COc1cc(C)c(CN2CC=C(c3ccc(F)cc3)CC2)cc1C is 5.1-fold lower in solubility kinetic: 0.043 mg/mL for the first, 0.0085 mg/mL (≈ 26.1 µM) for the second.

CNC(=O)Cn1c(C)cc(=O)c2cccc(OC)c21 and COc1cccc(NC(=O)c2cnc(SC)nc2C)c1 cannot be ordered by solubility kinetic: over 0.039 mg/mL for the first, over 0.0434 mg/mL for the second.

CN(C)C(=O)CN1c2cccc3cccc(c23)S1(=O)=O and NC(=O)c1cccc2ccccc12 cannot be ordered by solubility kinetic: over 0.0436 mg/mL for the first, over 0.0257 mg/mL for the second.

First: Cc1ccc(OCC(O)CNC2CCCC2)c(C)c1.Cl (stereo not given)
Second: Cc1c(Cl)cccc1NC(=S)NC1CCN(C(C)C)CC1
The solubility kinetic of the first is lower: 0.0413 mg/mL for the first, over 0.0489 mg/mL for the second.

First: CCOc1ccc(C(=O)Nc2ccccc2OC(F)F)cc1
Second: COc1ccc(OC)c(NC(=O)c2cccc(NC(=O)c3ccccc3)c2)c1
The solubility kinetic of the first is 1.6-fold lower: 0.0061 mg/mL (≈ 19.9 µM) for the first, 0.0098 mg/mL (≈ 26 µM) for the second.

Going from Cc1nc2ccc([N+](=O)[O-])cc2c(=O)n1Cc1ccccc1Br to CC(=O)c1c(C)nc2ccc([N+](=O)[O-])cc2c1-c1ccccc1, the solubility kinetic rises from 0.002 mg/mL (≈ 5.34 µM) to 0.0219 mg/mL (≈ 71.5 µM) (11-fold).

Going from Cn1c(=O)c2c(nc(SCc3ccccc3F)n2C)n(C)c1=O to CC(=O)c1cn(-c2ccc([N+](=O)[O-])cc2)c(=O)n(C)c1=O, the solubility kinetic rises from 0.0062 mg/mL (≈ 18.5 µM) to over 0.0434 mg/mL.

NC(=O)Cn1c(=O)n(-c2ccccc2)c(=O)c2oc3ccccc3c21 and O=C1CN(C(=O)COC(=O)c2ccccc2O)c2ccccc2N1 are within 1.5-fold of each other in solubility kinetic: 0.0026 mg/mL (≈ 7.75 µM) for the first, 0.0035 mg/mL (≈ 10.7 µM) for the second.

First: O=C(CCN1C(=O)C2C3CCC(C3)C2C1=O)OCC(=O)c1ccc(Cl)cc1 (stereo not given)
Second: CC(=O)c1cn(C(=O)c2ccc(Cl)cc2)c2ccccc12
The solubility kinetic of the first is higher: over 0.0585 mg/mL for the first, 0.0036 mg/mL (≈ 12.1 µM) for the second.

Going from CCC(C)(C)c1ccc(OC(=O)c2cccnc2Cl)cc1 to COc1ccc(CCNC(=O)c2cnc(Cl)c(Cl)c2)cc1, the solubility kinetic rises from under 0.0007 mg/mL to 0.0024 mg/mL (≈ 7.38 µM).

CCN1C(=O)CCC(C(=O)O)C1c1ccc(OC)cc1 (stereo not given) and COc1ccc(C(=O)NN2CCOCC2)cc1 cannot be ordered by solubility kinetic: over 0.0416 mg/mL for the first, over 0.0354 mg/mL for the second.

First: COc1cccc(C2Nc3cccc4cccc(c34)N2)c1
Second: COc1ccc2oc(=N)c(C(=O)Nc3ccc(C)cc3)cc2c1
The solubility kinetic of the first is 19-fold higher: 0.0115 mg/mL (≈ 41.6 µM) for the first, 0.0006 mg/mL (≈ 1.95 µM) for the second.

Cc1cc(C)n2nc(C(=O)OCC(=O)NCc3ccc(F)cc3)nc2n1 and O=C(CN1C(=O)c2ccc([N+](=O)[O-])cc2C1=O)NCc1ccc(C(=O)O)cc1 cannot be ordered by solubility kinetic: over 0.0536 mg/mL for the first, over 0.0575 mg/mL for the second.

CN(C(=O)CN1C(=O)NC2(CCCc3ccccc32)C1=O)C1CCCCC1 (stereo not given) and CC(=O)c1cccc(NC(=O)CN2C(=O)NC(C)(C)C2=O)c1 cannot be ordered by solubility kinetic: over 0.0554 mg/mL for the first, over 0.0455 mg/mL for the second.

O=C(NCCNC(=O)c1ccccc1Cl)c1ccco1 and Cc1ccccc1C(=O)NCCOc1ccccc1Cl are within 1.5-fold of each other in solubility kinetic: 0.0397 mg/mL (≈ 136 µM) for the first, 0.0404 mg/mL (≈ 139 µM) for the second.

First: COc1ccc(NC(=O)NCc2cccnc2)cc1
Second: CCOc1ccc(NC(=O)CSc2nc(=O)n(Cc3cccnc3)c3c2CCC3)cc1
The solubility kinetic of the first is higher: over 0.0386 mg/mL for the first, 0.0048 mg/mL (≈ 11 µM) for the second.

Going from CCOC(=O)N1CCC(NS(=O)(=O)c2ccc(C#N)cc2)CC1 to CCOC(=O)C1=C(C)Nc2ccccc2N=C1NC(=O)C1CCN(C(=O)c2ccccc2C)CC1, the solubility kinetic falls from over 0.0506 mg/mL to 0.0353 mg/mL (≈ 74.4 µM).

Going from Nc1ccc(-c2c3ccccc3nc3ccccc23)cc1 to O=C1OC(c2ccc(F)cc2)=N/C1=C\C=C/c1ccccc1, the solubility kinetic rises from under 0.0003 mg/mL to 0.0196 mg/mL (≈ 66.8 µM).

NC(=O)Cn1nc([N+](=O)[O-])nc1Oc1ccccc1F and COc1cccc(OC)c1C(=O)NCCc1ccccc1 cannot be ordered by solubility kinetic: over 0.0422 mg/mL for the first, over 0.0428 mg/mL for the second.

Compared with CC1CCCC(NC(=O)C2COc3ccccc3O2)C1C (stereo not given), COC(=O)c1cc(NC(=O)COC(=O)C2COc3ccccc3O2)cc(C(=O)OC)c1 (stereo not given) is 3.2-fold higher in solubility kinetic: 0.0172 mg/mL (≈ 59.4 µM) for the first, 0.0547 mg/mL (≈ 127 µM) for the second.

OC(CN1CCN(Cc2ccccc2)CC1)c1ccccc1 (stereo not given) and CC(NC(=O)C(c1ccccc1)c1ccccc1)C(=O)N1CCCCC1 (stereo not given) cannot be ordered by solubility kinetic: over 0.0445 mg/mL for the first, 0.0493 mg/mL (≈ 141 µM) for the second.

First: CC(=O)N(c1nc(CCl)cs1)c1cccc(C)c1C
Second: Cc1ccc(C(=O)OCc2cc(=O)n3ccsc3n2)s1
The solubility kinetic of the first is higher: over 0.0442 mg/mL for the first, 0.0068 mg/mL (≈ 22.2 µM) for the second.

First: Cn1c(=O)n(C)c2cc(S(=O)(=O)Nc3ccc(F)cc3)ccc21
Second: Cc1ccc(S(=O)(=O)Nc2ccc(Oc3cccnc3)nc2)cc1
The solubility kinetic of the first is 2-fold higher: 0.0335 mg/mL (≈ 99.9 µM) for the first, 0.0168 mg/mL (≈ 49.2 µM) for the second.

Going from CCOc1ccc(OCC)c(S(=O)(=O)NCc2ccccc2)c1 to CN(Cc1ccccc1)C(=O)COc1cc(Cl)ccc1Cl, the solubility kinetic falls from 0.0407 mg/mL (≈ 121 µM) to 0.0241 mg/mL (≈ 74.3 µM) (1.7-fold).

Going from O=[N+]([O-])c1c(NCCO)cc(N2CCC3(CC2)OCCO3)c2nonc12 to Cc1cc(NC(=O)CSCC(=O)Nc2cc(C(F)(F)F)ccc2N2CCCCC2)no1, the solubility kinetic falls from over 0.0548 mg/mL to 0.0076 mg/mL (≈ 16.6 µM).

Cc1c(C(=O)C(=O)N2CCN(C)CC2)c2ccccc2n1C and CN1CCN(C(=O)c2cccn(Cc3cccc(Cl)c3)c2=O)CC1 cannot be ordered by solubility kinetic: over 0.0449 mg/mL for the first, over 0.0519 mg/mL for the second.

Going from Cc1cc(C)nc(SSc2nc(C)cc(C)n2)n1 to CSc1nc2sc3c(c2c(=O)[nH]1)CC(C)(C)OC3, the solubility kinetic falls from 0.0406 mg/mL (≈ 146 µM) to 0.0139 mg/mL (≈ 49.2 µM) (2.9-fold).

Going from Cc1ccc(C(=O)NCc2nc3ccccc3[nH]2)o1 to Cn1c(C(=O)O)cc2cc(Oc3ccccc3)ccc21, the solubility kinetic falls from over 0.0383 mg/mL to 0.036 mg/mL (≈ 135 µM).

Compared with O=C1/C(=C/Nc2ccc3c(c2)OCO3)CCc2ccccc21, CC1(C)Cc2ccccc2C(NN=C2CCCC2)=N1 is higher in solubility kinetic: 0.0014 mg/mL (≈ 4.77 µM) for the first, over 0.0383 mg/mL for the second.

Going from COc1nccc(NCc2ccccc2)c1C#N to COC(=O)[C@H](Cc1ccccc1)NC(=O)NCc1ccccc1, the solubility kinetic rises from 0.0201 mg/mL (≈ 84 µM) to 0.0454 mg/mL (≈ 145 µM) (2.3-fold).

Going from O=C(Nc1ccc(O)cc1)c1ccc(NC(=O)c2ccco2)cc1 to CC(=O)Nc1ccc(NC(=O)c2cccc(Oc3ccccc3)c2)cc1, the solubility kinetic falls from 0.0018 mg/mL (≈ 5.58 µM) to under 0.0004 mg/mL.

First: CCOc1ccc(NC(=O)C(CC(=O)O)Cc2ccc(C)cc2)cc1 (stereo not given)
Second: COc1ccc(CC(=O)Nc2ccccc2N2CCCC2)cc1
The solubility kinetic of the first is higher: over 0.0512 mg/mL for the first, 0.0416 mg/mL (≈ 134 µM) for the second.

O=C(O)c1ccn(COc2ccc(Br)cc2)n1 and O=C(NCc1ccco1)C1Cc2cc(Cl)ccc2O1 (stereo not given) cannot be ordered by solubility kinetic: over 0.0446 mg/mL for the first, over 0.0417 mg/mL for the second.

O=C(COC(=O)c1ccc[nH]c1=O)NCCC1=CCCCC1 and CCc1cccc(CC)c1NC(=O)C1CCN(C(=O)c2ccco2)CC1 are within 1.5-fold of each other in solubility kinetic: 0.0411 mg/mL (≈ 135 µM) for the first, 0.0512 mg/mL (≈ 144 µM) for the second.

Compared with C=CCN1C(=O)C(=O)N(Cc2nc3ccccc3s2)C1=O, O=C1/C(=C/c2ccccc2)SC(=S)N1C1CCS(=O)(=O)C1 (stereo not given) is lower in solubility kinetic: over 0.0452 mg/mL for the first, 0.0009 mg/mL (≈ 2.65 µM) for the second.

CCC(C)c1ccccc1NC(=O)C(C)OC(=O)c1ccco1 (stereo not given) and CC(=O)N(Cc1ccccn1)Cc1ccco1 cannot be ordered by solubility kinetic: over 0.0473 mg/mL for the first, over 0.0345 mg/mL for the second.

First: Cc1nc(N2CCNCC2)c2c3c(sc2n1)CCCC3
Second: c1ccc2nc3c(nc2c1)CCCC3
The solubility kinetic of the first is lower: 0.0267 mg/mL (≈ 92.6 µM) for the first, over 0.0276 mg/mL for the second.

Compared with CCCc1cc(=O)[nH]c(SCC(=O)Nc2cc(S(=O)(=O)N(CC)c3ccccc3)ccc2Cl)n1, O=C(c1ccc(NC(=O)C2(c3ccccc3)CCCC2)cc1)N1CCOCC1 is higher in solubility kinetic: 0.0098 mg/mL (≈ 18.8 µM) for the first, over 0.0568 mg/mL for the second.

Compared with CC(C)CN1CCN(Cc2ccc(C(F)(F)F)cc2)CC1CCO (stereo not given), CCCCN1CNC(=S)N(CCc2ccc(OCC)c(OCC)c2)C1 is 3.6-fold lower in solubility kinetic: 0.0455 mg/mL (≈ 132 µM) for the first, 0.0126 mg/mL (≈ 34.5 µM) for the second.

Cc1ccc(C2C(N)C(=O)N2c2ccc(C)cc2)cc1 (stereo not given) and Cl.Clc1ccc(CNCCCSc2ncccn2)cc1 cannot be ordered by solubility kinetic: over 0.04 mg/mL for the first, over 0.0495 mg/mL for the second.

Compared with Cc1nnc(SC(C)C(=O)NC2CCCCC2C)s1 (stereo not given), CC(C)NC(=S)N(CCc1ccncc1)C(C)C is lower in solubility kinetic: over 0.0449 mg/mL for the first, 0.0274 mg/mL (≈ 103 µM) for the second.

With O=C(c1ccco1)N1CCN(c2ccc([N+](=O)[O-])cc2F)CC1 the solubility kinetic was 0.007 mg/mL (≈ 21.9 µM).
